Values after ≈ are worked out from the molar mass of the structure shown.
Assays:
[1] = test system: Pseudomonas aeruginosa PAO1-Xen41; test: Emax, maximal drug effect on net growth rate (fitted lower asymptote) (per hour (slope of log luminescence)); higher = weaker maximal killing (less negative)
Method: (§1)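 Time-kill assays of bioluminescent P. aeruginosa PAO1-Xen41 (start ~5e6 CFU/mL) in 96-well plates at 37 °C, 150 rpm. Luminescence was read hourly for 20 h in cation-adjusted Mueller-Hinton broth, either non-conditioned (MH broth with or without supplements) or conditioned by one of 13 CF-associated species, then filter-sterilised and nutrient-replenished. Growth/kill rates came from log-linear regression of the exponential phase at 9-10 antibiotic concentrations, and Hill (Emax) models were fitted with drc for each replicate.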

[2] = test system: Pseudomonas aeruginosa PAO1-Xen41; test: Hill coefficient of concentration-effect curve (unitless); higher = steeper concentration-effect curve
Method: as §1

[3] = test system: Pseudomonas aeruginosa PAO1-Xen41; test: EC50 of growth/kill rate concentration-effect curve
Method: as §1

C[C@H]1[C@H](NC(=O)/C(=N\OC(C)(C)C(=O)O)c2csc(N)n2)C(=O)N1S(=O)(=O)O [aztreonam]
Conditions | EC50, [3] [µg/mL] | Emax, [1] | Hill coefficient, [2]
medium (conditioned by secondary species or non-conditioned control): A. baumannii | 4.5 (≈ 10.3 µM) | -0.0894 | 6.71
medium (conditioned by secondary species or non-conditioned control): A. fumigatus | 5.15 (≈ 11.8 µM) | -0.0521 | 5.79
medium (conditioned by secondary species or non-conditioned control): A. xylosoxidans | 4.96 (≈ 11.4 µM) | -0.0816 | 6.69
medium (conditioned by secondary species or non-conditioned control): B. cepacia | 4.4 (≈ 10.1 µM) | -0.108 | 7.76
medium (conditioned by secondary species or non-conditioned control): C. albicans | 6.25 (≈ 14.4 µM) | -0.0614 | 3.57
medium (conditioned by secondary species or non-conditioned control): H. influenzae | 5.7 (≈ 13.1 µM) | -0.196 | 1.98
medium (conditioned by secondary species or non-conditioned control): M. abcessus | 4.66 (≈ 10.7 µM) | -0.0657 | 6.22
medium (conditioned by secondary species or non-conditioned control): M. avium | 4.58 (≈ 10.5 µM) | -0.0782 | 6.26
medium (conditioned by secondary species or non-conditioned control): M. catarrhalis | 5.07 (≈ 11.6 µM) | -0.16 | 4.2
medium (conditioned by secondary species or non-conditioned control): MH broth | 4.48 (≈ 10.3 µM) | -0.0757 | 7.92
medium (conditioned by secondary species or non-conditioned control): MH broth + ADC | 4.55 | -0.0421 | 5.14
medium (conditioned by secondary species or non-conditioned control): MH broth + LHB + NAD | 4.7 | -0.148 | 3.43
medium (conditioned by secondary species or non-conditioned control): MH broth + glucose | 5.04 | -0.0548 | 4.64
medium (conditioned by secondary species or non-conditioned control): R. mannitolilytica | 4.356 (≈ 10 µM) | -0.0751 | 7.94
medium (conditioned by secondary species or non-conditioned control): S. aureus | 4.88 (≈ 11.2 µM) | -0.072 | 4.66
medium (conditioned by secondary species or non-conditioned control): S. maltophilia | 4.32 (≈ 9.92 µM) | -0.114 | 3.3
medium (conditioned by secondary species or non-conditioned control): S. pneumoniae | 5.6 (≈ 12.9 µM) | -0.138 | 3.85

CC(C)(O/N=C(\C(=O)N[C@@H]1C(=O)N2C(C(=O)[O-])=C(C[n+]3ccccc3)CS[C@H]12)c1csc(N)n1)C(=O)O [ceftazidime]
Conditions | EC50, [3] [µg/mL] | Emax, [1] | Hill coefficient, [2]
medium (conditioned by secondary species or non-conditioned control): A. baumannii | 1.62 (≈ 2.96 µM) | -0.122 | 2.12
medium (conditioned by secondary species or non-conditioned control): A. fumigatus | 2.05 (≈ 3.75 µM) | -0.109 | 3.33
medium (conditioned by secondary species or non-conditioned control): A. xylosoxidans | 1.6 (≈ 2.92 µM) | -0.132 | 2.19
medium (conditioned by secondary species or non-conditioned control): B. cepacia | 1.15 (≈ 2.11 µM) | -0.138 | 2.53
medium (conditioned by secondary species or non-conditioned control): C. albicans | 2.02 (≈ 3.69 µM) | -0.126 | 3.16
medium (conditioned by secondary species or non-conditioned control): H. influenzae | 1.86 (≈ 3.41 µM) | -0.223 | 2.268
medium (conditioned by secondary species or non-conditioned control): M. abcessus | 1.17 (≈ 2.15 µM) | -0.0538 | 3.08
medium (conditioned by secondary species or non-conditioned control): M. avium | 1.19 (≈ 2.19 µM) | -0.0876 | 3.59
medium (conditioned by secondary species or non-conditioned control): M. catarrhalis | 1.12 (≈ 2.05 µM) | -0.166 | 3.76
medium (conditioned by secondary species or non-conditioned control): MH broth | 1.28 (≈ 2.33 µM) | -0.0573 | 3
medium (conditioned by secondary species or non-conditioned control): MH broth + ADC | 1.27 | -0.0561 | 3.55
medium (conditioned by secondary species or non-conditioned control): MH broth + LHB + NAD | 0.743 | -0.133 | 5.89
medium (conditioned by secondary species or non-conditioned control): MH broth + glucose | 1.71 | -0.0864 | 2.61
medium (conditioned by secondary species or non-conditioned control): R. mannitolilytica | 1.067 (≈ 1.95 µM) | -0.0734 | 3.02
medium (conditioned by secondary species or non-conditioned control): S. aureus | 1.12 (≈ 2.05 µM) | -0.069 | 3.04
medium (conditioned by secondary species or non-conditioned control): S. maltophilia | 0.702 (≈ 1.28 µM) | -0.139 | 3.32
medium (conditioned by secondary species or non-conditioned control): S. pneumoniae | 1.71 (≈ 3.12 µM) | -0.159 | 3.31

O=C(O)c1cn(C2CC2)c2cc(N3CCNCC3)c(F)cc2c1=O [ciprofloxacin]
Conditions | EC50, [3] [µg/mL] | Emax, [1] | Hill coefficient, [2]
medium (conditioned by secondary species or non-conditioned control): A. baumannii | 0.0737 (≈ 0.222 µM) | -0.126 | 4.99
medium (conditioned by secondary species or non-conditioned control): A. fumigatus | 0.08478 (≈ 0.256 µM) | -0.125 | 6.73
medium (conditioned by secondary species or non-conditioned control): A. xylosoxidans | 0.0394 (≈ 0.119 µM) | -0.0897 | 5.96
medium (conditioned by secondary species or non-conditioned control): B. cepacia | – | -0.0915 | 3.61
medium (conditioned by secondary species or non-conditioned control): C. albicans | 0.08689 (≈ 0.262 µM) | -0.0975 | 6.2
medium (conditioned by secondary species or non-conditioned control): H. influenzae | 0.0686 (≈ 0.207 µM) | -0.124 | 4.89
medium (conditioned by secondary species or non-conditioned control): M. abcessus | 0.046 (≈ 0.139 µM) | -0.124 | 4.82
medium (conditioned by secondary species or non-conditioned control): M. avium | 0.0646 (≈ 0.195 µM) | -0.0922 | 3.72
medium (conditioned by secondary species or non-conditioned control): M. catarrhalis | 0.0542 (≈ 0.164 µM) | -0.0659 | 1.71
medium (conditioned by secondary species or non-conditioned control): MH broth | 0.0844 (≈ 0.255 µM) | -0.125 | 6.8
medium (conditioned by secondary species or non-conditioned control): MH broth + ADC | 0.0577 | -0.11 | 3.02
medium (conditioned by secondary species or non-conditioned control): MH broth + LHB + NAD | 0.0388 | -0.106 | 4.99
medium (conditioned by secondary species or non-conditioned control): MH broth + glucose | 0.0437 | -0.101 | 5.64
medium (conditioned by secondary species or non-conditioned control): R. mannitolilytica | 0.0451 (≈ 0.136 µM) | -0.0966 | 4.94
medium (conditioned by secondary species or non-conditioned control): S. aureus | 0.0434 (≈ 0.131 µM) | -0.0957 | 5.13
medium (conditioned by secondary species or non-conditioned control): S. maltophilia | 0.0279 (≈ 0.0843 µM) | -0.0883 | 3.59
medium (conditioned by secondary species or non-conditioned control): S. pneumoniae | 0.0738 (≈ 0.223 µM) | -0.117 | 4.27

CCC(C)CCCC(=O)N[C@@H](CCN)C(=O)N[C@H](C(=O)N[C@@H](CCN)C(=O)N[C@H]1CCNC(=O)[C@H]([C@@H](C)O)NC(=O)[C@H](CCN)NC(=O)[C@H](CCN)NC(=O)[C@H](CC(C)C)NC(=O)[C@@H](CC(C)C)NC(=O)[C@H](CCN)NC1=O)[C@@H](C)O (stereo partly drawn) [colistin]
Conditions | EC50, [3] [µg/mL] | Emax, [1] | Hill coefficient, [2]
medium (conditioned by secondary species or non-conditioned control): A. baumannii | 3.78 (≈ 3.27 µM) | -0.97093 | 5.23
medium (conditioned by secondary species or non-conditioned control): A. fumigatus | 4 (≈ 3.47 µM) | -1.07 | 0.809
medium (conditioned by secondary species or non-conditioned control): A. xylosoxidans | 3.71 (≈ 3.21 µM) | -0.971 | 4.77
medium (conditioned by secondary species or non-conditioned control): B. cepacia | 2.64 (≈ 2.28 µM) | -1.015 | 1.13
medium (conditioned by secondary species or non-conditioned control): C. albicans | 1.65 (≈ 1.43 µM) | -0.9963 | 1.39
medium (conditioned by secondary species or non-conditioned control): H. influenzae | 0.634 (≈ 0.549 µM) | -0.1151 | 7.12
medium (conditioned by secondary species or non-conditioned control): M. abcessus | 1.56 (≈ 1.35 µM) | -0.976 | 2.24
medium (conditioned by secondary species or non-conditioned control): M. avium | 1.04 (≈ 0.899 µM) | -0.954 | 1.72
medium (conditioned by secondary species or non-conditioned control): M. catarrhalis | 0.325 (≈ 0.282 µM) | -0.139 | 14.6
medium (conditioned by secondary species or non-conditioned control): MH broth | 1.45 (≈ 1.26 µM) | -0.963 | 2.54
medium (conditioned by secondary species or non-conditioned control): MH broth + ADC | 0.607 | -0.901 | 11.8
medium (conditioned by secondary species or non-conditioned control): MH broth + LHB + NAD | 0.324 | -0.156 | 12.4
medium (conditioned by secondary species or non-conditioned control): MH broth + glucose | 1.22 | -0.9802 | 2.92
medium (conditioned by secondary species or non-conditioned control): R. mannitolilytica | 1.32 (≈ 1.14 µM) | -0.958 | 1.77
medium (conditioned by secondary species or non-conditioned control): S. aureus | 1.08 (≈ 0.939 µM) | -0.966 | 2.47
medium (conditioned by secondary species or non-conditioned control): S. maltophilia | 3.83 (≈ 3.31 µM) | -0.97063 | 7.36
medium (conditioned by secondary species or non-conditioned control): S. pneumoniae | 0.325 (≈ 0.281 µM) | -0.117 | 7.9

Source: the supplement of paper PMC11619387
